Data reported in US5773423A (priority 1994, dated 1998).
Structures can show the parent of a compound that is named as a salt. Where two headings read alike, the source gives them in different places.

What was measured:
[1] = molecular target: T1, A2 receptors from rat striatal membranes (Rattus norvegicus, UniProt P30543); assay: Radioligand binding at A2 (A2a) receptors, displacement of [3H]CGS 21680 (or [3H]NECA with 50 nM CPA) from rat striatal membranes
T1 construct: Rat cerebral cortical and striatal membranes were prepared; from tissue; host or cells: rat striatal membranes
T1 sequence (P30543 whole entry): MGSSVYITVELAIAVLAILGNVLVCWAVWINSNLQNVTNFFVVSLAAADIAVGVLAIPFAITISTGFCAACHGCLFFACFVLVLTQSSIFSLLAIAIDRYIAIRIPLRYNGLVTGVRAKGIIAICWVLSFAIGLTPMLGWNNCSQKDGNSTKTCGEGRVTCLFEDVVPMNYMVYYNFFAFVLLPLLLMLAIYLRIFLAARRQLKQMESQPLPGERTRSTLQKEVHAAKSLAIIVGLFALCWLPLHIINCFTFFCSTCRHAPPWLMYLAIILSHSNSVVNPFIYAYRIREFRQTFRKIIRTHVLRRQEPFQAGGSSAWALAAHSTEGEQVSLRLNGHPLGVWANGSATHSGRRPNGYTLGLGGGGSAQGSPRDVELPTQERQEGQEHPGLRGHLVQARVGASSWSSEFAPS

[2] = molecular target: T2, A1 receptors from rat brain membranes (Rattus norvegicus, UniProt P25099); assay: biochemical; type: binding; conditions: for inhibition at 100 µM: read-out: A1 percent displacement
T2 construct: Rat cerebral cortical and striatal membranes were prepared; from tissue; host or cells: rat brain (cerebral cortical) membranes
T2 sequence (P25099 1-326): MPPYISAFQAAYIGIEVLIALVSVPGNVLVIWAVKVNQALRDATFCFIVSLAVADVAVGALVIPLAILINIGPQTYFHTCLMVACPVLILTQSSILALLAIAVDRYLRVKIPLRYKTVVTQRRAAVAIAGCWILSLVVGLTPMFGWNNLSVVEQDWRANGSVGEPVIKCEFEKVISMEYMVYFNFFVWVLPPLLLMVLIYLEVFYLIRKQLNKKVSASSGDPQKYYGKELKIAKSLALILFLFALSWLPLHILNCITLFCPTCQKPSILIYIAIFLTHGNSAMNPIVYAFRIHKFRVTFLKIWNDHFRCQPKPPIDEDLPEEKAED

[3] = rat striatal membranes, displacement of [3H]CGS 21680 (or [3H]NECA + 50 nM CPA), read-out: A2 affinity Ki
[4] = read-out: A2 percent displacement
[5] = rat brain membranes, displacement of [3H]PIA (or [3H]CHA), read-out: A1 affinity Ki
[6] = read-out: percent displacement of radioligand at A2

Row | Structure (SMILES) | Ki [1, 3] [nM] | Ki [2, 5] [nM] | further results
1 | CCCCn1c(=O)c2c(ncn2[C@@H]2O[C@H](C(N)=O)[C@@H](O)[C@H]2O)n(CCCC)c1=O |  |  | A2a affinity decrease vs 1,3-di-n-butylxanthine-7-β-D-ribofuranoside [1]: 2.8 fold
2 | CCCCCC[C@H]([C@H](C)O)n1cnc2c(N)ncnc21 (relative stereo) [Compound 96, erythro-9-(2-hydroxy-3-nonyl)adenine, reference compound] |  |  | inhibition at 100 µM ([1]; at 100 μM, read-out: A2 percent displacement): 59.6 ± 2.8%
3 | Nc1ccc(CCNc2ncnc3c2ncn3[C@@H]2O[C@H](CO)[C@@H](O)[C@H]2O)cc1 [APNEA, N^6-2-(4-aminophenyl)ethyladenosine, reference compound] |  |  | Ki ([1]; Table 2, [3H]CGS 21680, rat striatal membranes, read-out: Ki (A2)): 172 ± 50 nM; A1 selectivity [2]: 8 fold
4 | O=C(NC1CC1)[C@H]1O[C@@H](n2cnc3c(NCc4ccccc4)ncnc32)[C@H](O)[C@@H]1O [Compound 24, N^6-benzyladenosine-5'-N-cyclopropyluronamide] | 55 ± 6 |  | 
5 | NCCNC(=O)[C@H]1O[C@@H](n2cnc3c(N)ncnc32)[C@H](O)[C@@H]1O [Compound 25, 5'-N-aminoethylaminocarboxamidoadenosine] |  |  | inhibition at 100 µM [1, 4]: 12.5%; inhibition at 100 µM [2]: 0%
6 | CC(C)(C)OC(=O)NCCNC(=O)[C@H]1O[C@@H](n2cnc3c(N)ncnc32)[C@H](O)[C@@H]1O [Compound 26, 5'-N-boc-aminoethylaminocarboxamidoadenosine] |  |  | inhibition at 100 µM [1, 4]: 0%; inhibition at 100 µM ([2]; at 100 μM): 0%
7 | CN(Cc1ccccc1)c1ncnc2c1ncn2[C@@H]1O[C@H](CO)[C@@H](O)[C@H]1O [Compound 30, N^6 -benzyl-N^6 -methyladenosine, reference compound] | 40100 | 7600 | 
8 | Nc1ncnc2c1nc(Br)n2[C@@H]1O[C@H](CO)[C@@H](O)[C@H]1O [Compound 31, 8-bromoadenosine, reference compound] | 22700 |  | inhibition at 100 µM [2]: 41.5 ± 3.2%
9 | Nc1nccc2c1ncn2[C@@H]1O[C@H](CO)[C@@H](O)[C@H]1O [Compound 32, 3-deazaadenosine, reference compound] | 59800 |  | 
10 | Nc1c2ncn([C@@H]3O[C@H](CO)[C@@H](O)[C@H]3O)c2nc[n+]1[O-] [Compound 34, adenosine-N^1 -oxide, reference compound] | 328 ± 60 |  | Ki [2]: 246 ± 31 nM
11 | CCNC(=O)[C@H]1O[C@@H](n2cnc3c(N)[n+]([O-])cnc32)[C@H](O)[C@@H]1O [Compound 35, adenosine-5'-N-ethyluronamide-N^1-oxide] | 101 ± 19 |  | 
12 | [O-][n+]1cnc2c(ncn2[C@@H]2O[C@H](CO)[C@@H](O)[C@H]2O)c1NCc1ccccc1 [Compound 36, N^6 -benzyladenosine-N^1 -oxide] | 8530 | 864 ± 88 | 
13 | CCNC(=O)[C@H]1O[C@@H](n2cnc3c(=N)n(Cc4ccc([N+](=O)[O-])cc4)cnc32)[C@H](O)[C@@H]1O [Compound 37] | 190 ± 52 | 341 ± 52 | 
14 | CCNC(=O)[C@H]1O[C@@H](n2cnc3c(=N)n(Cc4ccccc4[N+](=O)[O-])cnc32)[C@H](O)[C@@H]1O [Compound 38, N'-(2-nitrobenzyl)NECA] | 83.5 ± 9.5 | 196 ± 52 | 
15 | NC(=O)[C@H]1O[C@@H](n2cnc3c(NCc4ccccc4)ncnc32)[C@H](O)[C@@H]1O [Compound 39, N^6-benzyl-5'-carboxamidoadenosine] | 423 ± 46 | 580 ± 99 | 
16 | CNC(=O)[C@H]1O[C@@H](n2cnc3c(NCc4ccccc4)ncnc32)[C@H](O)[C@@H]1O [Compound 40, N^6-benzyladenosine-5'-N-methyluronamide] | 597 ± 42 | 898 ± 124 | 
17 | CNC(=O)[C@H]1O[C@@H](n2cnc3c(NCc4cccc(Br)c4)ncnc32)[C@H](O)[C@@H]1O [Compound 41, N^6-(3-bromobenzyl)-NMCA] | 64 ± 9 | 65 ± 2 | 
18 | CNC(=O)[C@H]1O[C@@H](n2cnc3c(NCc4cccc([N+](=O)[O-])c4)ncnc32)[C@H](O)[C@@H]1O [Compound 43, N^6-(3-nitrobenzyl)-NMCA] | 441 ± 45 |  | 
19 | CNC(=O)[C@H]1O[C@@H](n2cnc3c(NCc4cccc(N)c4)ncnc32)[C@H](O)[C@@H]1O [Compound 44, N^6-(3-aminobenzyl)adenosine-5'-N-methyluronamide] | 794 ± 118 |  | 
20 | CNC(=O)[C@H]1O[C@@H](n2cnc3c(NCc4cccc(NC(C)=O)c4)ncnc32)[C@H](O)[C@@H]1O [Compound 45, N^6-(3-acetamidobenzyl)-NMCA] |  | 7370 | inhibition at 100 µM [1, 4]: 12.5 ± 1.9%
21 | CNC(=O)[C@H]1O[C@@H](n2cnc3c(NCc4cccc(C)c4)ncnc32)[C@H](O)[C@@H]1O [Compound 46, N^6-(3-methylbenzyl)-NMCA] | 415 ± 33 | 322 ± 23 | 

Row | Structure (SMILES) | Ki [1, 3] [nM] | Ki [2, 5] [nM] | further results
22 | CNC(=O)[C@H]1O[C@@H](n2cnc3c(NCc4cccc(C(F)(F)F)c4)ncnc32)[C@H](O)[C@@H]1O [Compound 47, N^6-(3-trifluoromethylbenzyl)adenosine-5'-N-methyluronamide] | 574 ± 49 |  | 
23 | CNC(=O)[C@H]1O[C@@H](n2cnc3c(NCc4ccc(Cl)cc4)ncnc32)[C@H](O)[C@@H]1O [Compound 48, N^6-(4-chlorobenzyl)-NMCA] | 2730 |  | 
24 | CNC(=O)[C@H]1O[C@@H](n2cnc3c(NCc4ccc(Br)cc4)ncnc32)[C@H](O)[C@@H]1O [Compound 49, N^6-(4-bromobenzyl)-NMCA] | 2460 |  | 
25 | CNC(=O)[C@H]1O[C@@H](n2cnc3c(NCc4ccc(N)cc4)ncnc32)[C@H](O)[C@@H]1O [Compound 50, N^6-(4-aminobenzyl)-NMCA] | 1590 | 431 ± 45 | 
26 | CNC(=O)[C@H]1O[C@@H](n2cnc3c(NCc4ccc(N)c(I)c4)ncnc32)[C@H](O)[C@@H]1O [Compound 51, N^6-(4-amino-3-iodobenzyl)adenosine-5'-N-methyluronamide] | 316 ± 43 |  | displacement of radioligand from A2a (in words) [1]: not A1 or A2a receptors
27 | CNC(=O)[C@H]1O[C@@H](n2cnc3c(NCc4cccc(S(=O)(=O)O)c4)ncnc32)[C@H](O)[C@@H]1O [Compound 52, N^6-(3-sulfobenzyl)-NMCA triethylammonium salt] | > 10000 | > 10000 | 
28 | CNC(=O)[C@H]1O[C@@H](n2cnc3c(NCc4ccc(S(=O)(=O)O)cc4)ncnc32)[C@H](O)[C@@H]1O [Compound 53, N^6-(4-sulfobenzyl)adenosine-5'-N-methyluronamide triethylammonium salt] |  |  | inhibition at 100 µM [1, 4]: 0%; inhibition at 100 µM ([2]; at 100 μM): 0%
29 | CCNC(=O)[C@H]1O[C@@H](n2cnc3c(N[C@H](C)c4ccccc4)ncnc32)[C@H](O)[C@@H]1O [Compound 55, N^6 -(R-phenylethyl)-NECA] | 259 ± 15 | 3.2 ± 0.1 | 
30 | CCNC(=O)[C@H]1O[C@@H](n2cnc3c(N[C@@H](C)c4ccccc4)ncnc32)[C@H](O)[C@@H]1O [Compound 56, N^6 -(S-phenylethyl)-NECA] | 1650 |  | 
31 | CCNC(=O)[C@H]1O[C@@H](n2cnc3c(NCc4cccc(F)c4)ncnc32)[C@H](O)[C@@H]1O [Compound 57, N^6-(3-fluorobenzyl)adenosine-5'-N-ethyluronamide] | 32 ± 4 | 51 ± 7 | 
32 | CCNC(=O)[C@H]1O[C@@H](n2cnc3c(NCc4cccc(Cl)c4)ncnc32)[C@H](O)[C@@H]1O [Compound 58, N^6-(3-chlorobenzyl)adenosine-5'-N-ethyluronamide] | 19 ± 0.3 | 22 ± 3 | 
33 | NC[C@H]1O[C@@H](n2cnc3c(N)ncnc32)[C@H](O)[C@@H]1O [Compound 74, 5'-deoxy-5'-aminoadenosine, reference compound] |  | 42700 | 
34 | Cn1c(=O)[nH]c(=O)c2[nH]cnc21 [Compound 100, 3-methylX, reference compound] |  |  | inhibition at 100 µM [1, 4]: 38 ± 0.9%
35 | CCCCn1c(=O)c2[nH]cnc2n(CCCC)c1=O [Compound 109, 1,3-di-n-butyl-xanthine, reference compound] | 2930 |  | 
36 | O=c1c2[nH]cnc2n(Cc2ccccc2)c(=O)n1Cc1ccccc1 [Compound 111, 1,3-dibenzylX, reference compound] |  |  | inhibition at 10 µM ([1]; at 10 μM, read-out: A2 percent displacement): 3.61 ± 0.94%
37 | Cn1c(=O)c2ncn(C)c2n(C)c1=O [Compound 113, 1,3,9-trimethylX, reference compound] |  |  | inhibition at 100 µM [1, 4]: 14.4 ± 5.7%
38 | Cn1c(=O)c2c(ncn2CCO)n(C)c1=O [Compound 116, 7-β-hydroxyethylT, reference compound] | 17400 |  | 
39 | CCCCn1c(=O)c2c(ncn2[C@@H]2O[C@H](C(=O)NC)[C@@H](O)[C@H]2O)n(CCCC)c1=O [Compound 124, N-methyl 1,3-di-n-butylxanthine-7-β-D-ribofuronamide] |  |  | inhibition at 100 µM [2]: 30%
40 | CCCCCCn1c(=O)c2c(ncn2[C@@H]2O[C@H](CO)[C@@H](O)[C@H]2O)n(CCCCCC)c1=O [Example 64, 1,3-di-n-hexylxanthine-7-β-D-ribofuranoside] |  |  | inhibition at 10 µM [1, 6]: 7.8%; inhibition at 100 µM [1, 6]: 69 ± 2%
41 | CCCCCn1c(=O)c2c(ncn2[C@@H]2O[C@H](C(=O)NC)[C@@H](O)[C@H]2O)n(CCCCC)c1=O [Example 68, N-methyl 1,3-di-n-pentylxanthine-7-β-D-ribofuronamide] |  |  | inhibition at 100 µM [1, 6]: 2%
42 | CCCCCCn1c(=O)c2c(ncn2[C@@H]2O[C@H](C(=O)NC)[C@@H](O)[C@H]2O)n(CCCCCC)c1=O [Example 69, N-methyl 1,3-di-n-hexylxanthine-7-β-D-ribofuronamide] |  |  | inhibition at 100 µM ([1]; Table 4, at 10^-4 M, read-out: percent displacement of radioligand at A2): 0%
